Laboratory results as given in ChEMBL document CHEMBL5360532, “Current scenario of quinolone hybrids with potential antibacterial activity against ESKAPE pathogens” (Eur J Med Chem, 2023).
In brackets after ≈: the same amount, converted by molar mass.

How the values were obtained:
Format in all cases: functional
Staphylococcus aureus [1] = assay: Potency index, ratio of ciprofloxacin MIC to test compound MIC for antimicrobial activity against Staphylococcus aureus assessed as bacterial growth inhibition by agar cup diffusion assay
Staphylococcus aureus [2] = assay: Antibacterial activity against Staphylococcus aureus assessed as bacterial growth inhibition by broth microdilution assay
[3] = test system: Mycobacterium tuberculosis; assay: Antimycobacterial activity against Mycobacterium tuberculosis H37Rv assessed as bacterial growth inhibition by broth microdilution assay
[4] = test system: Mycobacterium tuberculosis; assay: Potency index, ratio of rifampicin MIC to test compound MIC for antimycobacterial activity against Mycobacterium tuberculosis H37Rv assessed as bacterial growth inhibition by broth microdilution assay
[5] = test system: Mycobacterium tuberculosis; assay: Potency index, ratio of isoniazid MIC to test compound MIC for antimycobacterial activity against Mycobacterium tuberculosis H37Rv assessed as bacterial growth inhibition by broth microdilution assay
Staphylococcus aureus [6] = assay: Antibacterial activity against methicillin resistant Staphylococcus aureus assessed as bacterial growth inhibition by two fold microdilution assay
Staphylococcus aureus [7] = assay: Antibacterial activity against methicillin sensitive Staphylococcus aureus assessed as bacterial growth inhibition by two fold microdilution assay
Escherichia coli [8] = assay: Antibacterial activity against Escherichia coli assessed as bacterial growth inhibition by two fold microdilution assay
Klebsiella pneumoniae = assay: Antibacterial activity against Klebsiella pneumoniae assessed as bacterial growth inhibition by two fold microdilution assay
Staphylococcus aureus [9] = assay: Antibacterial activity against ciprofloxacin resistant Staphylococcus aureus assessed as bacterial growth inhibition by broth microdilution assay
Staphylococcus aureus [10] = assay: Antibacterial activity against methicillin resistant Staphylococcus aureus assessed as bacterial growth inhibition by microdilution assay
Escherichia coli [11] = assay: Antibacterial activity against Escherichia coli assessed as bacterial growth inhibition by broth microdilution assay
Pseudomonas aeruginosa [12] = assay: Antibacterial activity against Pseudomonas aeruginosa assessed as bacterial growth inhibition by broth microdilution assay
Escherichia coli [13] = assay: Potency index, ratio of ampicillin MIC to test compound MIC for antimicrobial activity against Escherichia coli assessed as bacterial growth inhibition by broth microdilution assay
Pseudomonas aeruginosa [14] = assay: Potency index, ratio of ampicillin MIC to test compound MIC for antimicrobial activity against Pseudomonas aeruginosa assessed as bacterial growth inhibition by broth microdilution assay
Staphylococcus aureus [15] = assay: Potency index, ratio of ampicillin MIC to test compound MIC for antimicrobial activity against Staphylococcus aureus assessed as bacterial growth inhibition by broth microdilution assay
Staphylococcus aureus [16] = assay: Antibacterial activity against Staphylococcus aureus assessed as bacterial growth inhibition by serial dilution method
Pseudomonas aeruginosa [17] = assay: Antibacterial activity against Pseudomonas aeruginosa assessed as bacterial growth inhibition by serial dilution method
[18] = test system: Mycolicibacterium smegmatis; assay: Antibacterial activity against Mycobacterium smegmatis assessed as bacterial growth inhibition by serial dilution method

Molecule `O=C(CSc1nnc(N2CCN(c3cc4c(cc3F)c(=O)c(C(=O)O)cn4C3CC3)CC2)s1)c1ccc([N+](=O)[O-])cc1` has a Ratio (Staphylococcus aureus [1]) of 2, an MIC (Staphylococcus aureus [2]) of 1 µg/mL (≈ 1.64 µM) and an MIC [3] of 0.5 µg/mL (≈ 0.819 µM). For the same molecule, the Ratio [4] was 2 and the Ratio [5] was 3.

Molecule `O=C(O)c1cn([C@@H]2C[C@@H]2F)c2cc(N3CCN(Cn4nc(-c5ccncc5)n(Cc5ccccc5)c4=S)CC3)c(F)cc2c1=O` has an MIC (Staphylococcus aureus [6]) of 0.5 µg/mL (≈ 0.794 µM), an MIC (Staphylococcus aureus [7]) of 0.5 µg/mL (≈ 0.794 µM) and an MIC (Escherichia coli [8]) of no more than 0.003 µg/mL. It also gave an MIC (Klebsiella pneumoniae) of no more than 0.003 µg/mL.

With `CCCCCC(=O)N(CCNCCNc1ccc(CN2CCN(c3cc4c(cc3F)CC(C(=O)O)=CN4C3CC3)CC2)cc1)CCN(CCN(CCN(CCN(CCN(CCN(CCN(CCN(CCN(CCN(CCN(CCN(CCN(CCN(CCN(CCN(CCN(CCN(CCN(CCN(CCN(CCN(CCN(CCN(CCN(CCN(CCN(CCN(CCN(CCN(CCNC(C)=O)C(C)=O)C(C)=O)C(C)=O)C(C)=O)C(C)=O)C(C)=O)C(C)=O)C(C)=O)C(C)=O)C(C)=O)C(C)=O)C(C)=O)C(C)=O)C(C)=O)C(C)=O)C(C)=O)C(C)=O)C(C)=O)C(C)=O)C(C)=O)C(C)=O)C(C)=O)C(C)=O)C(C)=O)C(C)=O)C(C)=O)C(C)=O)C(=O)CCCCC)C(=O)CCCCC)C(=O)CCCCC` the MIC (Staphylococcus aureus [9]) was 0.44 µg/mL (≈ 0.129 µM).

In the case of `CCCCC(=O)N(CCNCCNc1ccc(CN2CCN(c3cc4c(cc3F)CC(C(=O)O)=CN4C3CC3)CC2)cc1)CCN(CCN(CCN(CCN(CCN(CCN(CCN(CCN(CCN(CCN(CCN(CCN(CCN(CCN(CCN(CCN(CCN(CCN(CCN(CCN(CCN(CCN(CCN(CCN(CCN(CCN(CCN(CCN(CCN(CCNC(C)=O)C(C)=O)C(C)=O)C(C)=O)C(C)=O)C(C)=O)C(C)=O)C(C)=O)C(C)=O)C(C)=O)C(C)=O)C(C)=O)C(C)=O)C(C)=O)C(C)=O)C(=O)CCCC)C(=O)CCCC)C(=O)CCCC)C(=O)CCCC)C(=O)CCCC)C(=O)CCCC)C(=O)CCCC)C(=O)CCCC)C(=O)CCCC)C(=O)CCCC)C(=O)CCCC)C(=O)CCCC)C(=O)CCCC)C(=O)CCCC)C(=O)CCCC`, the MIC (Staphylococcus aureus [9]) is reported as 0.62 µg/mL (≈ 0.164 µM).

`COP(=O)(OC)C(c1cc(C(C)(C)C)c(O)c(C(C)(C)C)c1)N1CCN(c2cc3c(cc2F)c(=O)c(C(=O)O)cn3C2CC2)CC1` (stereo unspecified) showed an MIC (Staphylococcus aureus [10]) of 0.5 µg/mL.

`CCn1cc(C(=O)NN2C(=O)/C(=C/C=C/c3ccccc3)SC2=S)c(=O)c2cc(F)ccc21` gave an MIC (Staphylococcus aureus [2]) of less than 1 µg/mL, an MIC (Escherichia coli [11]) of less than 1 µg/mL and an MIC (Pseudomonas aeruginosa [12]) of less than 1 µg/mL. It also gave a Ratio (Escherichia coli [13]) greater than 10, a Ratio (Pseudomonas aeruginosa [14]) greater than 10 and a Ratio (Staphylococcus aureus [15]) greater than 10.

With `COC(=O)c1ccc(NC(=O)COC(=O)c2ccncc2)cc1OCCC(=O)NC1CCN(c2c(F)cc3c(=O)c(C(=O)O)cn(C4CC4)c3c2Cl)C1` (stereo unspecified) the MIC (Staphylococcus aureus [16]) was 0.125 µg/mL (≈ 0.167 µM), the MIC (Pseudomonas aeruginosa [17]) was 0.125 µg/mL (≈ 0.167 µM) and the MIC [18] was 0.125 µg/mL (≈ 0.167 µM).
